According to patent publication US20190053492A1, “SUBSTITUTED PYRIDINE COMPOUNDS AS PESTICIDES” (Bayer CropScience Aktiengesellschaft, priority 2016, published 2019):
Like-named read-outs stand apart in the source and are kept apart here.

Legend:
[1] = log P by HPLC on reversed-phase column (C 18), EEC Directive 79/831 Annex V.A8; format: physicochemical; conditions: 55° C.; for chromatographic logP: reversed-phase HPLC column (C 18); for LOGP_HCOOH: log P (HCOOH)
Protocol: Temperature: 55° C. […] Called log P (HCOOH) in the table. […] Called log P (neutral) in the table.

Ctenocephalides felis = Ctenocephalides felis oral test; format: in vivo; conditions: application rate 100 ppm in citrated cattle blood, after 2 days, adult cat fleas
In short: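 About 20 unfed adult cat fleas fed through a parafilm membrane on citrated cattle blood dosed with compound from a DMSO formulation. Percent kill was scored after 2 days.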

Spodoptera frugiperda = Spodoptera frugiperda spray test; format: in vivo; conditions: after 7 days, maize leaf discs
In short: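 Maize leaf discs were sprayed with compound formulated in acetone/DMF and emulsifier-containing water, dried, then infested with Spodoptera frugiperda caterpillars. Percent kill was scored after 7 days, from 100% (all dead) to 0% (none dead).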

Tetranychus urticae = Tetranychus urticae spray test, OP-resistant; format: in vivo; conditions: after 6 days, bean leaf discs
Protocol: Tetranychus urticae—Spray Test, OP-Resistant
Solvent: 78.0 parts by weight of acetone • • 1.5 parts by weight of dimethylformamide
Emulsifier: alkylaryl polyglycol ether
To produce a suitable active ingredient formulation, 1 part by weight of active ingredient is dissolved with the specified parts by weight of solvent and made up with water containing an emulsifier concentration of 1000 ppm until the desired concentration is attained. To produce further test concentrations, the formulation is diluted with emulsifier-containing water.
Discs of bean leaves (Phaseolus vulgaris) infested with all stages of the greenhouse red spider mite (Tetranychus urticae) are sprayed with an active ingredient formulation of the desired concentration.
After 6 days, the efficacy in % is determined. 100% means that all the spider mites have been killed; 0% means that no spider mites have been killed.

Phaedon cochleariae = Phaedon cochleariae spray test; format: in vivo; conditions: after 7 days, Chinese cabbage leaf discs
In short: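 Chinese cabbage leaf discs sprayed with compound in acetone/DMF and emulsifier-containing water, then infested with mustard beetle larvae once dry. Efficacy in % scored after 7 days (100% = all larvae killed, 0% = none).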

Meloidogyne incognita = Meloidogyne incognita test; format: in vivo; conditions: application rate 20 ppm, after 14 days, lettuce
Protocol: Meloidogyne incognita Test Solvent: 125.0 parts by weight of acetone To produce a suitable active ingredient formulation, 1 part by weight of active ingredient is mixed with the stated amount of solvent and the concentrate is diluted with water to the desired concentration. Vessels are filled with sand, active ingredient solution, an egg/larvae suspension of the southern root-knot nematode (Meloidogyne incognita) and lettuce seeds. The lettuce seeds germinate and the plants develop. The galls develop on the roots. After 14 days, the nematicidal efficacy in % is determined by the formation of galls. 100% means that no galls were found; 0% means that the number of galls on the treated plants corresponds to the untreated control.

Lucilia cuprina = Lucilia cuprina test; format: in vivo; conditions: application rate 100 ppm, after 2 days, L1 larvae
In short: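 Active ingredient dissolved in DMSO and diluted with water to the test concentration. About 20 first-instar sheep blowfly larvae placed on minced horsemeat containing the formulation; percentage of larvae killed scored after 2 days.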

Musca domestica = Musca domestica test; format: in vivo; conditions: application rate 100 ppm, after 2 days, adult houseflies
Protocol: Musca domestica Test Solvent: dimethyl sulphoxide To produce a suitable active ingredient formulation, 10 mg of active ingredient are mixed with 0.5 ml of dimethyl sulphoxide, and the concentrate is diluted with water to the desired concentration. Vessels containing a sponge treated with sugar solution and the active ingredient formulation of the desired concentration are populated with 10 adult houseflies (Musca domestica). After 2 days, the kill in % is determined. 100% means that all of the flies have been killed; 0% means that none of the flies have been killed.

[2] = log P, neutral range, HPLC on reversed-phase column (C 18)
[3] = acidic range pH 2.7, 0.1% aqueous formic acid and acetonitrile, reversed-phase column (C 18)
[4] = log P (neutral), HPLC reversed-phase column (C 18)
[5] = acidic range at pH 2.7, 0.1% aqueous formic acid and acetonitrile, HPLC on reversed-phase column (C 18)

SMILES	LOGP_NEUTRAL [1, 2]	efficacy (spider mites killed) (Tetranychus urticae; application rate 500 g/ha)	LOGP_HCOOH [1, 3]	efficacy (caterpillars killed) (Spodoptera frugiperda; application rate 100 g/ha)	efficacy (caterpillars killed) (Spodoptera frugiperda; application rate 500 g/ha)	efficacy (beetle larvae killed) (Phaedon cochleariae; application rate 100 g/ha)	efficacy (beetle larvae killed) (Phaedon cochleariae; application rate 500 g/ha)	LOGP_HCOOH [1, 5]	other results
CN(C(=O)c1cc(-c2ccc(C(F)(F)F)cc2)cc(NC(=O)C2CC2)n1)C1CC1 [Example I-036, N-Cyclopropyl-6-[(cyclopropylcarbonyl)amino]-N-methyl-4-[4-(trifluoromethyl)phenyl]pyridine-2-carboxamide]	3.21	90%	–	–	–	–	–	–	chromatographic logP ([1]; pH 2.7, log P (HCOOH), acidic range pH 2.7, 0.1% aqueous formic acid and acetonitrile, reversed-phase column (C 18), read-out: LOGP_HCOOH): 3.3; chromatographic logP ([1]; pH 7.8, LC-MS neutral range, pH 7.8, ammonium hydrogencarbonate/acetonitrile, read-out: log P (neutral)): 3.21; pest or weed control at 100 ppm (Ctenocephalides felis; Ctenocephalides felis, po, 48 h, read-out: efficacy (kill in %)): 100%; pest or weed control at 500 g/ha (Spodoptera frugiperda; Spodoptera frugiperda, foliar, 168 h, application rate 500 g/ha, read-out: efficacy (caterpillars killed)): 83%
N#Cc1ccc(CNC(=O)c2cc(-c3ccc(OC(F)(F)F)cc3)cc(NC(=O)C3CC3)n2)s1 [Example I-255]	–	90%	3.90	83%	100%	–	–	–	LOGP_NEUTRAL [1, 4]: 3.88
O=C(NC1CC1)c1cc(-c2ccc(SC(F)(F)F)cc2)cc(NC(=O)C2CC2)n1 [Example I-105]	3.71	100%	3.86	83%	100%	100%	100%	–	efficacy (kill in %) (Ctenocephalides felis): 100%
COCCNC(=O)c1cc(-c2ccc(OC(F)(F)F)cc2)cc(NC(=O)C2CC2)n1 [Example I-177]	3.26	–	–	–	–	–	–	3.29	nematicidal efficacy (formation of galls) (Meloidogyne incognita): 90%
N#Cc1ccc(CNC(=O)c2cc(-c3ccc(OC(F)(F)C(F)Cl)cc3)cc(NC(=O)C3CC3)n2)cc1 (stereo not shown) [Example I-194]	3.74	90%	–	–	–	–	83%	3.81	efficacy (spider mites killed) (Tetranychus urticae; application rate 100 g/ha): 90%
N#Cc1cccc(CCNC(=O)c2cc(-c3ccc(OC(F)(F)F)cc3)cc(NC(=O)C3CC3)n2)c1 [Example I-091]	3.88	90%	4.01	100%	100%	–	100%	–	efficacy (kill in %) (Ctenocephalides felis): 95%; efficacy (kill in %) (Lucilia cuprina): 100%
N#CC1CCC(CNC(=O)c2cc(-c3ccc(C(F)(F)C(F)(F)F)c(F)c3)cc(NC(=O)C3CC3)n2)CC1 (stereo not shown) [Example I-185]	4.14	90%	–	100%	100%	100%	100%	4.29	–
C#CCNC(=O)c1cc(-c2ccc(C(F)(F)F)cc2)cc(NC(=O)C2CC2)n1 [Example I-038]	3.25	–	3.34	–	83%	100%	83%	–	nematicidal efficacy (formation of galls) (Meloidogyne incognita): 90%
COC(=O)c1ccc(CNC(=O)c2cc(-c3ccc(OC(F)(F)F)cc3)cc(NC(=O)C3CC3)n2)cc1 [Example I-101]	3.97	90%	4.08	–	–	–	83%	–	–
CC(NC(=O)c1cc(-c2ccc(OC(F)(F)F)cc2)cc(NC(=O)C2CC2)n1)c1ccc(C#N)cc1 (single isomer, unassigned) [Example I-218]	4.02	90%	–	100%	100%	100%	100%	4.17	efficacy (spider mites killed) (Tetranychus urticae; application rate 100 g/ha): 90%
O=C(NCc1ccccc1)c1cc(-c2ccc(OC(F)(F)F)cc2)cc(NC(=O)C2CC2)n1 [Example I-227]	–	90%	–	–	100%	–	100%	4.23	efficacy (spider mites killed) (Tetranychus urticae; application rate 100 g/ha): 90%
Cn1ccc(-c2ccc(CNC(=O)c3cc(-c4ccc(OC(F)(F)F)cc4)cc(NC(=O)C4CC4)n3)cc2)n1 [Example I-100]	3.75	–	3.86	–	83%	–	–	–	efficacy (spider mites killed) (Tetranychus urticae; application rate 100 g/ha): 90%
N#Cc1ccc(CNC(=O)c2cc(-c3ccc(C(F)(F)C(F)(F)F)cc3)cc(NC(=O)C3CC3)n2)cc1 [Example I-182]	4.07	90%	–	100%	100%	100%	100%	4.24	efficacy (kill in %) (Ctenocephalides felis): 100%; efficacy (kill in %) (Lucilia cuprina): 100%
O=C(NN=Cc1ccc(C(F)(F)F)c(F)c1)c1cc(-c2ccc(OC(F)(F)F)cc2)cc(NC(=O)C2CC2)n1 [Example I-257]	–	–	4.72	–	100%	–	–	–	nematicidal efficacy (formation of galls) (Meloidogyne incognita): 90%
O=C(NCc1ccc(N2CCCC2=O)cc1)c1cc(-c2ccc(OC(F)(F)F)cc2)cc(NC(=O)C2CC2)n1 [Example I-259]	–	–	3.55	–	100%	–	83%	–	LOGP_NEUTRAL [1, 4]: 3.58; nematicidal efficacy (formation of galls) (Meloidogyne incognita): 90%
N#Cc1ccc(CNC(=O)c2cc(-c3ccc(OC(F)(F)F)cc3)cc(NC(=O)C3CC3)n2)c(F)c1 [Example I-079]	3.91	–	4.03	100%	100%	–	100%	–	efficacy (kill in %) (Ctenocephalides felis): 100%; efficacy (kill in %) (Lucilia cuprina): 100%; efficacy (kill in %) (Musca domestica): 90%
